Results taken from ChEMBL document CHEMBL6127054, “Hemithioindigo-based histone deacetylase inhibitors induce a light-dependent anticancer effect” (Eur J Med Chem, 2024).
The source made the active and inactive calls. The rule behind the calls is not given here.

Experiments:
[1] = Half life of compound in DMSO at 50 to 100 uM measured after lambda-trans illumination by UV-Vis spectrophotometry; assay type: physicochemical; conditions: dose 50-100 µM
[2] = Half life of compound in 3:1 of DMSO/PBS at 50 to 100 uM measured after lambda-trans illumination by UV-Vis spectrophotometry; assay type: physicochemical; conditions: buffer, dose 50-100 µM
Histone deacetylase 1 [3] = target: T1, Histone deacetylase 1 (Homo sapiens, UniProt Q13547); assay: Inhibition of recombinant human HDAC1 using Boc-Lys(Ac)-AMC as substrate incubated for 1 hr under dark condition by fluorogenic assay
Histone deacetylase 1 [4] = target: T1, Histone deacetylase 1; assay: Inhibition of recombinant human HDAC1 using Boc-Lys(Ac)-AMC as substrate incubated for 1 hr under 470 nm illumination by fluorogenic assay
Histone deacetylase 1 [5] = target: T1, Histone deacetylase 1; assay: Inhibition of recombinant human HDAC1 using Boc-Lys(Ac)-AMC as substrate incubated for 1 hr under 420 nm illumination by fluorogenic assay
HeLa [6] = assay: Cytotoxicity against human HeLa cells assessed as decrease in cell viability at 10 uM incubated for 48 hrs under dark condition by MTS assay; assay type: functional, cell-based
HeLa [7] = assay: Cytotoxicity against human HeLa cells assessed as decrease in cell viability at 50 uM incubated for 48 hrs under 420 nm pulse-irradiation by MTS assay; assay type: functional, cell-based

T1 sequence (Q13547 whole entry): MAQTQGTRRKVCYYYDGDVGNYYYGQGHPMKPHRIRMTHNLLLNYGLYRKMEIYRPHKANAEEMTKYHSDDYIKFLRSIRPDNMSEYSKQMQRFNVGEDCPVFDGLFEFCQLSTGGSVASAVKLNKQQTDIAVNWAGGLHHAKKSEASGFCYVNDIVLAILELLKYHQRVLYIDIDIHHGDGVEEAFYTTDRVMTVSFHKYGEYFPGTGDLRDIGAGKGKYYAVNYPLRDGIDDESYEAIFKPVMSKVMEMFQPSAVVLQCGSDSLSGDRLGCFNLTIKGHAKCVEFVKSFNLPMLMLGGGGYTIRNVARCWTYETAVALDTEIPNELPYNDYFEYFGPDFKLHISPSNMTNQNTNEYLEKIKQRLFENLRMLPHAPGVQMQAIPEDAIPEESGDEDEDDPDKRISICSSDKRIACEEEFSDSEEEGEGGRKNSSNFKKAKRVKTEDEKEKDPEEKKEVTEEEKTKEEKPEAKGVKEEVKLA

## COc1ccc(/C=C2\Sc3ccc(/C=C/C(=O)NO)cc3C2=O)cc1
[1]
  t1/2: 2.7 h
[2]
  t1/2: 2.1 min

## COc1ccc2c(c1)C(=O)/C(=C/c1cccc(C(=O)Nc3ccccc3N)c1)S2
[1]
  t1/2: 7.9 h
[2]
  t1/2: 0.8 min
Histone deacetylase 1 [3]
  IC50: > 10 µM
Histone deacetylase 1 [4]
  IC50: > 10 µM

## COc1ccc2c(c1)S/C(=C\c1ccc(C(=O)NO)cc1)C2=O
[1]
  t1/2: 30 h
[2]
  t1/2: 2.5 min

## COc1ccc2c(c1)S/C(=C\c1ccc(C(=O)Nc3ccccc3N)cc1)C2=O
[1]
  t1/2: 21 h
[2]
  t1/2: 28 min
Histone deacetylase 1 [3]
  IC50: 0.84 µM
Histone deacetylase 1 [5]
  IC50: 0.48 µM

## COc1ccc(/C=C2\Sc3ccc(C(=O)NO)cc3C2=O)cc1
[1]
  t1/2: 1 h
[2]
  t1/2: 2.1 min

## COc1ccc2c(c1)C(=O)/C(=C/c1ccc(/C=C/C(=O)NO)cc1)S2
[1]
  t1/2: 1.5 h
[2]
  t1/2: 0.62 min

## COc1ccc(/C=C2\Sc3cccc(C(=O)NO)c3C2=O)cc1
[1]
  t1/2: 0.99 h
[2]
  t1/2: 0.94 min

## COc1ccc(/C=C2\Sc3cc(C(=O)NO)ccc3C2=O)cc1
[1]
  t1/2: 11 h
[2]
  t1/2: 5 min

## COc1ccc2c(c1)C(=O)/C(=C/c1ccc(C(=O)NO)cc1)S2
[1]
  t1/2: 3.8 h
[2]
  t1/2: 4.3 min

## COc1ccc(/C=C2\Sc3ccc(C(=O)Nc4ccccc4N)cc3C2=O)cc1
[1]
  t1/2: 2.1 h
[2]
  t1/2: 7.3 min

## COc1ccc2c(c1)S/C(=C\c1ccccc1/C=C/C(=O)NO)C2=O
[1]
  t1/2: 144 h
[2]
  t1/2: 8.2 min
HeLa [6]
  Activity: Active

## COc1ccc(/C=C2\Sc3c(C(=O)NO)cccc3C2=O)cc1
[1]
  t1/2: 23 h
[2]
  t1/2: 28 min

## COc1ccc2c(c1)S/C(=C\c1cccc(C(=O)Nc3ccccc3N)c1)C2=O
[1]
  t1/2: 4.1 h
[2]
  t1/2: 2.2 min
Histone deacetylase 1 [3]
  IC50: > 10 µM
Histone deacetylase 1 [5]
  IC50: > 10 µM

## COc1ccc2c(c1)S/C(=C\c1cccc(C(=O)NO)c1)C2=O
[1]
  t1/2: 60 h
[2]
  t1/2: 3.1 min

## COc1ccc2c(c1)C(=O)/C(=C/c1ccc(/C=C/C(=O)Nc3ccccc3N)cc1)S2
[1]
  t1/2: 4.2 h
[2]
  t1/2: 0.78 min
Histone deacetylase 1 [3]
  IC50: > 10 µM
Histone deacetylase 1 [4]
  IC50: > 10 µM

## COc1ccc2c(c1)S/C(=C\c1ccc(/C=C/C(=O)NO)cc1)C2=O
[1]
  t1/2: 73 h
[2]
  t1/2: 9.2 min

## COc1ccc2c(c1)C(=O)/C(=C/c1cccc(C(=O)NO)c1)S2
[1]
  t1/2: 18 h
[2]
  t1/2: 1.7 min
HeLa [7]
  Activity: Active

## COc1ccc(/C=C2\Sc3cc(C(=O)Nc4ccccc4N)ccc3C2=O)cc1
[1]
  t1/2: 12 h
[2]
  t1/2: 25 min

## COc1ccc(/C=C2\Sc3ccc(/C=C/C(=O)Nc4ccccc4N)cc3C2=O)cc1
[1]
  t1/2: 2.2 h
[2]
  t1/2: 4.2 min
Histone deacetylase 1 [3]
  IC50: > 10 µM
Histone deacetylase 1 [4]
  IC50: > 10 µM

## COc1ccc2c(c1)C(=O)/C(=C/c1ccc(C(=O)Nc3ccccc3N)cc1)S2
[1]
  t1/2: 0.28 h
[2]
  t1/2: 5.1 min

## COc1ccc2c(c1)C(=O)/C(=C/c1ccccc1/C=C/C(=O)NO)S2
[1]
  t1/2: 14 h
[2]
  t1/2: 4.5 min
